{"source": "patent US20050065183A1", "about": "(priority 2003, published 2005)", "origin": "cited, not measured here", "test_system": "muscarinic"}
{"smiles": "CC(C)(C(=O)O)c1ccc(C(O)CCCN2CCC(C(O)(c3ccccc3)c3ccccc3)CC2)cc1", "note": "(stereo not drawn) [Fexofenadine, 4-[4-[4-(hydroxydiphenylmethyl)-1-piperidinyl]-1-hydroxybutyl]-α,α-dimethylbenzeneacetic acid]", "values": [{"measurement": "antimuscarinic activity", "value": "weak"}]}
